This note sets out measurements from patent publication US4661484A, “Pyridazinone derivatives and salts thereof as cardiac stimulants” (Mitsubishi Chemical Industries Limited, priority 1984, dated 1987).

For one data set, the system named is papillary muscle of dog. Nature of the data set: Effect on contraction of an isolated and cross-circulated papillary muscle preparation of the dog. The following applies: Canis lupus familiaris; dosage 30 μg i.a.; read-out: Contraction of papillary muscle of dog, increase. On the procedure: 1. Effect on contraction of an isolated and cross-circulated papillary muscle preparation of the dog
An isolated and cross-circulated papillary muscle preparation of the dog was prepared by Endo and Hashimoto's method (referred to American Journal of Physiology, 218, 1459-1463, 1970). The effect of the compound was measured by closely intraarterially injecting the compound dissolved in a solvent to the papillary muscle for the purpose of recording its effect on contraction of papillary muscle.

The nature of data set [1]: Acute toxicity (LD50), intravenous, male mice. The following applies: mouse, in vivo, i.v. The method, then: Acute toxicity (LD50) for intravenous administration in male mice was determined by the method of […] and Wilcoxon (referred to Journal of Pharmacology and Experimental Therapeutics, 96, 99-113, 1949).
Data set [2] concerns myocardial contraction in anesthetized dogs. Nature of the data set: Effects on myocardial contraction in anesthetized dogs. The format is in vivo. To be noted: anesthetized dog. The method, then:
3. Effects on myocardial contraction in anesthetized dogs
Male and female mongrel dogs with body weight of 8-15 kg were used. A dog was anesthetized by intraveneous injection of 30 mg/kg of sodium pentobarbital and practiced artificial respiration. The dog was thoractomized between fourth and fifth costa which was cut off. The pericardium was incised to expose heart. Blood flow through the aorta, which was measured with an electromagnetic blood flowmeter whose probe was attached to the ascending aorta, was used as an approximate index of cardiac output (CO). Left ventricular pressure (LVP) was measured with a Miller Catheter-tip pressure transducer and the first derivative of the LVP (dP/dt) was measured with a differentiater. Contraction of right ventricular muscle (Cont) was determined with a strain-gauge attached to the wall. Systemic blood pressure was measured from the left femoral artery. Heart rate was measured with electrocardiogram (lead II) and a cardiotachometer. The compound dissolved in a solvent was administered intravenously from a left femoral vein.

The test system of data set [3] is left atrium of the guinea pig. Nature of the data set: Effect on contraction of an isolated left atrium of the guinea pig. The following applies: Cavia porcellus; dosage 10^-5 g/ml; read-out: Contraction of left atrium of guinea pig, increase. On the procedure:
2. Effect on contraction of an isolated left atrium of the guinea pig
A left atrium was isolated from a male guinea pig with 200-300 g of body weight soon after striking on the back of its head. The mitral orifice was fixed to the bottom of an organ bath filled with 30 ml of Krebs-Henseleit solution maintained at 35° C. A gas mixture comprising 95% of O2 and 5% of CO2 was passed through the Krebs-Henseleit solution in the organ bath. Isometric tension was measured by connecting a left auricle of heart and a transducer by a yarn. A resting tension of 0.5 g was given to the atrium, which was then electrically driven with square pulses with duration of 1 msec and voltage of 1.5 times as much as threshold in the rate of 2 Hz via dipolar platinum electrodes.
After stabilizing the atrium for 30 minutes from its preparation, the compound dissolved in a solvent was added to the organ bath to measure its effect.

In the case of `O=c1ccc(-c2ccc(Nc3ccncc3)cc2)n[nH]1` [Example I, 6-[4-(4'-pyridyl)aminophenyl]-3(2H)-pyridazinone], the activation at 0.03 mg in the data set on papillary muscle of dog is 12.4%. In addition, the LD50 (in general, the dose at which mortality reaches 50%) in data set [1] is 103 mg/kg. Also, in data set [2] (30 μg/kg i.v.), the “CO increase (cardiac output)” value is 13%, the “Cont increase (contraction of right ventricular muscle)” value is given as 31% and the dP/dt max increase came to 64%. In data set [2] (100 μg/kg i.v.), the “CO increase (cardiac output)” value was 11%, the “Cont increase (contraction of right ventricular muscle)” value was found to be 39% and the dP/dt max increase worked out at 108%. Moreover, in data set [3], the activation at 10 µg/mL came out at 163%.
